According to paper PMC11008251, “Distribution of 2,2′,5,5′-Tetrachlorobiphenyl (PCB52) Metabolites in Adolescent Rats after Acute Nose-Only Inhalation Exposure” (Environmental Science & Technology, 2024):

Experiment: LC-HRMS analysis of PCB52 metabolites in tissues after 4 h nose-only inhalation
Type: in vivo, Sprague–Dawley rats
Protocol: The Institutional Animal Care and Use Committee of the University of Iowa approved all of the animal protocols. Animals were housed in a temperature- and humidity-controlled room (21 °C, 55% relative humidity) with a 12 h light/dark cycle in an Association for the Assessment and Accreditation of Laboratory Animal Care (AAALAC) accredited animal facility. Animals were provided with food (sterile Teklad 5% stock diet, Harlan, Madison, WI) and water ad libitum throughout the study. Thirty-six male and female Sprague–Dawley rats (7 weeks of age; Charles River, Wilmington, MA) were allowed to acclimate to the animal facility for 8 days after arrival. Prior to exposure, rats (227 ± 27 and 197 ± 13 g, male and female, respectively) were randomly assigned to the exposure groups (n = 6 per group) using a random number generated (Excel, version 2307). Animals were simultaneously exposed for 4 h to a low or high concentration of PCB52-laden per sex) or filtered lab air (Figure 1A). Exposure duration was limited to 4 h along with scheduled training days (30 min at 55 days of age and 2 h at 56 days of age) to acclimate animals and minimize stress. […]
Tissues (brain, cecum and intestinal content, liver, lung, and serum) were homogenized and extracted for LC-HRMS analysis following a published approach; see the Supporting Information.[19] Extracts were analyzed at the High-Resolution Mass Spectrometry Facility at the University of Iowa on a Q-Exactive Orbitrap mass spectrometer (Thermo Fisher Scientific, Waltham, MA, U.S.A.) with an Axquity UPLC-C18 column (particle size: […], 2.1 × 100 mm, Waters, Milford, MA, U.S.A.); see the Supporting Information. […]
All analyses were conducted by using validated standard operating procedures. […] X1-OH-PCB52 estimated concentrations were calculated based on the relative response factor of 4-OH-PCB52. The precision and recoveries of the analyses were further assessed by measuring the recovery of PCB52 and 4-OH-PCB52 from spiked sample blanks and matched blank tissue matrices (Table S6). […]
were extracted and analyzed in parallel. […]

SMILES: Clc1ccc(Cl)c(-c2cc(Cl)ccc2Cl)c1 [PCB52, 2,2′,5,5′-tetrachlorobiphenyl]
- number of PCB52 metabolites identified by LC-HRMS (liver): 7 metabolites
- number of PCB52 metabolites identified by LC-HRMS (lung): 9 metabolites
- number of PCB52 metabolites identified by LC-HRMS (serum): 9 metabolites
